Test [1] has as its target T1, demethylmenaquinone methyltransferase (MenG) (Staphylococcus aureus, UniProt P67062).
T1 sequence (P67062 1-241): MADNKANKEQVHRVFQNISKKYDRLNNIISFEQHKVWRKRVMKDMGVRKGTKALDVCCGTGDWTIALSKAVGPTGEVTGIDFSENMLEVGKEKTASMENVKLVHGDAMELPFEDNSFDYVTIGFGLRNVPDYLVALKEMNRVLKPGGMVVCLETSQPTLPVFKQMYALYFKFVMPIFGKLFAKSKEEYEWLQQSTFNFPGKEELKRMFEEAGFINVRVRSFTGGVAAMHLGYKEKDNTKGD
Put plainly: LC-MS of menaquinone-2 formed in lysate. Type of test: biochemical. Particulars: S-adenosyl-L-methionine as methyl donor, 80 min.

Test [2] has as its target T2, signal peptidase IB (SpsB) (Staphylococcus aureus, UniProt Q5HHB9).
T2 sequence (Q5HHB9 1-191): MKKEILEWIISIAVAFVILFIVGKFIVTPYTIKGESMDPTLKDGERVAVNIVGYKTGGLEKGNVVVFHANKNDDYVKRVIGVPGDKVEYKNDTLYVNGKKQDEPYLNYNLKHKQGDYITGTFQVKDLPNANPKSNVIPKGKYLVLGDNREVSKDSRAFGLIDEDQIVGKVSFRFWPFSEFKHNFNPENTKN
As to the kind of experiment: FRET-peptide cleavage by endogenous SpsB in S. aureus membranes. The format is biochemical. Particulars: activator; 50 uM compound, 0.2 mg/mL total membrane protein.

In test [3] the target is T1, demethylmenaquinone methyltransferase (MenG). Put plainly: MenG methylation assay in lysate. Type of test: biochemical. The following applies: inhibitor; SAM and DMK-2 as substrates, 80 min.
For test [4] the target is unchanged. The following applies: labelled compound; DMK-2 as acceptor, 80 min.

Data on 6 compounds can be found in publication PMC6994260 (Nature chemistry, 2019).

Molecules are shown by their SMILES.

As for `CC(C)=CCC/C(C)=C/CC1=CC(=O)c2ccccc2C1=O` [DMK-2, demethylmenaquinone-2], the “LC-MS of menaquinone-2 formed in lysate” value in test [1] was “methylation of non-naturally occurring demethylmenaquinone-2 by lysates of MenG-overexpressing and wild type S. aureus”. For `O=C(Nc1ccc2c(c1)OC(F)(F)O2)Nc1ccc(Cl)c(C(F)(F)F)c1` [PK150], the “SpsB activity (normalized) at 50 μM” value in test [2] is 2.54 ± 0.39 fold of DMSO control. In test [3], the “% MenG activity of DMSO control” value is “Menaquinone-2 synthesis was enhanced in MenG-overexpressing cells and again significantly inhibited by PK150”.

As for `O=C(Nc1ccc2c(c1)OCO2)Nc1ccc(Cl)c(C(F)(F)F)c1` [1-159], the “SpsB activity (normalized) at 50 μM” value in test [2] is reported as 1.40 ± 0.01 fold of DMSO control.

`C[S+](CC[C@H](N)C(=O)O)C[C@H]1O[C@@H](n2cnc3c(N)ncnc32)[C@H](O)[C@@H]1O` (stereo partly drawn) [SAM, S-adenosyl-L-methionine]: in test [4], the “[3H]methyl transfer to DMK-2, liquid scintillation counting” value is given as “radiolabelled methyl group of cofactor S-adenosyl-L-methionine”. As for `CNC(=O)c1cc(Oc2ccc(NC(=O)Nc3ccc(Cl)c(C(F)(F)F)c3)cc2)ccn1` [SFN, sorafenib], the “SpsB activity (normalized) at 50 μM” value in test [2] is 1.64 ± 0.12 fold of DMSO control. In addition, the “% MenG activity of DMSO control” value in test [3] was “SFN caused a weaker inhibition in these assays”.

In the case of `O=C(Nc1ccc(Cl)c(C(F)(F)F)c1)Nc1cccc2c1OC(F)(F)O2` [1-164], the “SpsB activity (normalized) at 50 μM” value in test [2] is recorded as 1.42 ± 0.08 fold of DMSO control.
